# Several values for one entry are separate records, joined by “and”; a condition that tells them apart may be missing. Equal values may be shown once.
# Experiments:
# [1] = biological target: T1, Drosophila OR47a (Drosophila melanogaster, UniProt P81921); experiment: Calcium ion fluorescence (GCaMP6) assay, OR47a stable HEK293 cell line; type: cell-based; settings: OR47a cell line; assay buffer lacking Ca2+, and lacking Ca2+ and containing EGTA
# T1 construct: expressed in transfected cells
# T1 sequence (P81921 1-385): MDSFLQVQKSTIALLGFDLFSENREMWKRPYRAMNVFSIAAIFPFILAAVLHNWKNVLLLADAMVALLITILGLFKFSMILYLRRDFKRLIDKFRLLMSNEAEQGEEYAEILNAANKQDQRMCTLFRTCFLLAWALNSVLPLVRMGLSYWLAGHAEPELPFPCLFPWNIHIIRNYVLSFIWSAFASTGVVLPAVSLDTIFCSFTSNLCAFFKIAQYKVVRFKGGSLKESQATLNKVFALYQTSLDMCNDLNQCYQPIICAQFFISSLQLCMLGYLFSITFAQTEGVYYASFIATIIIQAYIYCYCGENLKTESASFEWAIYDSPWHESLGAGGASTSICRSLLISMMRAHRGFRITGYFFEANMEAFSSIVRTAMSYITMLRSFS
# T1 sequence (Q9VNB5 1-486 partner): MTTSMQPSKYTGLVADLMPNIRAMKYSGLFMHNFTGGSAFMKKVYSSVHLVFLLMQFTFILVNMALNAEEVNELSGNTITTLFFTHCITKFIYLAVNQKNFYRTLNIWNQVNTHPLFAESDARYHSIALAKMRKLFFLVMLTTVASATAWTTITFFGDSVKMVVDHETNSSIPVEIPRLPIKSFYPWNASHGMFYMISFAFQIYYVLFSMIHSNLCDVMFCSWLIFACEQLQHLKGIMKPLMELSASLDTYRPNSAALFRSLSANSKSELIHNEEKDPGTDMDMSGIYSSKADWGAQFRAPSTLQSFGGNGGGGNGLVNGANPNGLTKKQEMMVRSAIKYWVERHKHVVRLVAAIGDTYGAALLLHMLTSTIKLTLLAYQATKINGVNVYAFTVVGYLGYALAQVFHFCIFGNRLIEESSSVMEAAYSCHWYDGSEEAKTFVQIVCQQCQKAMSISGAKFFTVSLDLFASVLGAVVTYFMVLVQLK
# Procedure: (§1) These VUAA1 normalized ∆F values were used to compare the different receptors and ligands.
# (§2) The concentration-dependent effect of the reference ligands on their cognate cell lines was examined in more detail. Twelve different ligand concentrations were measured on each cell line in an overall 0.01 μM to 100 μM concentration range with 5 repetitions with three technical replicates each time.
# (§3) Twelve thousand to 18,000 cells were plated into each well of a black wall, transparent bottom 384-well microplate (Greiner) 48 h or 72 h before the measurements and were simultaneously treated with 1 μg/mL doxycycline. […] The plate has 24 columns, thus we could record responses in up to eight different cell lines in each plate. On the day of the experiment, the growth medium was replaced with 20 µL assay buffer/well (140 mM NaCl, 5 mM KCl, 2 mM CaCl2, 1 mM MgCl2, 5 mM HEPES-Na, 20 mM glucose, pH 7.3, 340 mOsm). […] Baseline fluorescence (F0) was recorded for 5 s, after which 7 µL VOC buffer (140 mM NaCl, 5 mM KCl, 2 mM CaCl2, 1 mM MgCl2, 5 mM HEPES-Na, 31 mM glucose, 0.1% DMSO, pH 7.3, 340 mOsm) was injected into each well in one row and the fluorescence response was recorded for an additional 30 s, at a rate of one read/sec. VOC solutions (VOC buffer with 4× concentration of the final measured VOC concentration, 9 µL/well was injected) were measured on the same wells in a second round with the same protocol. Each individual concentration of a specific VOC sample was recorded in three wells for the same cell line on the same microplate. The raw data were exported in xls file format, F0 and FMAX values, and the fluorescence intensity changes (∆F) were calculated in Excel (Microsoft) (Supplementary file Data summary.xlsx) using the following equation: ΔF=FMAX-F0/F0 (see also Fig. 1C). On each plate, we recorded the response of each cell line to 50 µM VUAA1. The average of these ∆F values of each cell line were used to calculate the VUAA1-normalized values for the rest of the plate, by dividing VOC response ∆F values by the average VUAA1 response ∆F value of the corresponding OR cell line. Each VOC-OR combination was measured three times as technical replicates. […] The average of these replicates were used as one ∆F and VUAA1-normalized ∆F in the following analysis.
# (§4) In the next rows we tested the reference VOCs (or other VOCs known to activate the corresponding cell lines), in order to test if all cell lines are responsive. The remaining rows were used to test VOCs with unknown effect.
# (§5) The recorded FMAX, F0, ∆F, VUAA1-normalized ∆F values, as well as the OR name, the name of the tested sample, and the final concentration for each well were copied into supplementary file Data summary.xlsx, that was used to summarize all the plates recorded. Here, the averages of the measurements were calculated for each receptor-VOC-concentration combination.
# [2] = system: T2, OR cell lines (OR + ORCO); experiment: Maximum fluorescence change of the OR cell lines, long term stability testing / VUAA1 check; type: cell-based, Drosophila melanogaster
# T2 construct: expressed in transfected cells
# Procedure: as §1
# Twelve thousand to 18,000 cells were plated into each well of a black wall, transparent bottom 384-well microplate (Greiner) 48 h or 72 h before the measurements and were simultaneously treated with 1 μg/mL doxycycline. […] The plate has 24 columns, thus we could record responses in up to eight different cell lines in each plate. On the day of the experiment, the growth medium was replaced with 20 µL assay buffer/well (140 mM NaCl, 5 mM KCl, 2 mM CaCl2, 1 mM MgCl2, 5 mM HEPES-Na, 20 mM glucose, pH 7.3, 340 mOsm). […] Baseline fluorescence (F0) was recorded for 5 s, after which 7 µL VOC buffer (140 mM NaCl, 5 mM KCl, 2 mM CaCl2, 1 mM MgCl2, 5 mM HEPES-Na, 31 mM glucose, 0.1% DMSO, pH 7.3, 340 mOsm) was injected into each well in one row and the fluorescence response was recorded for an additional 30 s, at a rate of one read/sec. VOC solutions (VOC buffer with 4× concentration of the final measured VOC concentration, 9 µL/well was injected) were measured on the same wells in a second round with the same protocol. Each individual concentration of a specific VOC sample was recorded in three wells for the same cell line on the same microplate. […] On each plate, we recorded the response of each cell line to 50 µM VUAA1. […] Each VOC-OR combination was measured three times as technical replicates. […]
# [3] = biological target: T3, ORCO (Drosophila melanogaster, UniProt Q9VNB5); experiment: Origin of Ca2+ test, (GCaMP6-GSG)ORCO cell line; type: cell-based; settings: assay buffer lacking Ca2+, and lacking Ca2+ and containing EGTA
# T3 sequence (Q9VNB5 1-486): T1 sequence (Q9VNB5 1-486 partner)
# Source text: We tested for the origin of the Ca^2+ ions on two cell lines, OR47a and (GCaMP6-GSG)ORCO, with assay buffer lacking Ca^2+ and assay buffer lacking Ca^2+ and containing EGTA.
# [4] = biological target: T4, Drosophila OR10a (Drosophila melanogaster, UniProt Q9VYZ1); experiment: Calcium ion fluorescence (GCaMP6) assay, OR10a stable HEK293 cell line; type: cell-based; settings: 50 µM, OR10a clone G5, single plate 2019.12.05
# T4 construct: expressed in transfected cells
# T4 sequence (Q9VYZ1 1-406): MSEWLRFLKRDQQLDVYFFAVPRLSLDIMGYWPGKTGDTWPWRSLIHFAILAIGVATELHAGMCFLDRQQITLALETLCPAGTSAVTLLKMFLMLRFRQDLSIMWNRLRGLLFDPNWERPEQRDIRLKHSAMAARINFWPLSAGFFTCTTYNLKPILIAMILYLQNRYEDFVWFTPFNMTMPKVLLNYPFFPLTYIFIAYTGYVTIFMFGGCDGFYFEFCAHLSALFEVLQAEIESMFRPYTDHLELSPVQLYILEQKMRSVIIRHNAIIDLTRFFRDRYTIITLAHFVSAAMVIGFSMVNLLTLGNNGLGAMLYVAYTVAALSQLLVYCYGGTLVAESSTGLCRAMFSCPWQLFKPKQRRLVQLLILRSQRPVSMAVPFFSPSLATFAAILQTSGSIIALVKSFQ
# T4 sequence (Q9VNB5 1-486 partner): T1 sequence (Q9VNB5 1-486 partner)
# Procedure: as §1, §2, §3, §4, §5
# [5] = system: OR49b; settings: 80 μM; OR49b transiently in HEK293T cells; cited from earlier work
# [6] = system: OR49b; design: method as in PMID 23329732; settings: OR49b in Xenopus oocytes; read-out: calculated EC50; cited from earlier work
# [7] = biological target: T5, Drosophila OR49b (Drosophila melanogaster, UniProt Q9V6H2); experiment: cell-based
# T5 construct: expressed in transfected cells
# T5 sequence (Q9V6H2 1-375): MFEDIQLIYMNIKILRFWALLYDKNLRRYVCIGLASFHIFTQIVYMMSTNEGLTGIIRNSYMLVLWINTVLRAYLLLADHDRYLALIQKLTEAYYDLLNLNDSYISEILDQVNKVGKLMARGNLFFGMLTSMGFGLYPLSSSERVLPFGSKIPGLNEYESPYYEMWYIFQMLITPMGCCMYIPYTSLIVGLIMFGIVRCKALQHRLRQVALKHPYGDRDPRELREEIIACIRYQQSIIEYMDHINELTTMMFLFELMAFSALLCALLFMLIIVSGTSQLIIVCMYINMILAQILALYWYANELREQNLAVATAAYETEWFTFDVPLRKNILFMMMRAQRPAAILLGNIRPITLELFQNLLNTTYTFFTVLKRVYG
# T5 sequence (Q9VNB5 1-486 partner): T1 sequence (Q9VNB5 1-486 partner)
# Procedure: as §1, §2, §3, §4, §5
# [8] = OR49b, average of 5 biological replicates
# [9] = OR49b, fit of each biological replicate
# [10] = OR49b, fit of the averaged curve
smiles,measurement,setting,value
"CCc1ccc(NC(=O)CSc2nnc(-c3cccnc3)n2CC)cc1 [VUAA1, reference compound]",response in assay buffer lacking Ca2+,[1],Neither of the cell lines responded
same,peaks of fluorescence intensity change,"[2]; ORCO agonist VUAA1, highest over OR cell lines",≤ 462%
same,response of the cell lines to VUAA1,"[2]; all cell lines, including the four non-responding OR lines",responded
same,response in assay buffer lacking Ca2+,[3],Neither of the cell lines responded
same,"DF norm, all technical replicates",[4],1
same,"DF norm, outlier technical replicates removed",[4],1
same,"DF, outlier technical replicates removed",[4],1.743
same,"DF, all technical replicates",[4]; xc+0.1%DMSO,1.743
Cc1ccccc1O [2-methylphenol],response,[5],38.5%
same,EC50,[6],239 ± 76 µM
same,EC50,"[7]; EC50 (fitted parameter), OR49b, fit of each biological replicate",3.35 µM and 16.1 µM and 14.8 µM and 21 µM and 31.6 µM
same,EC50,"[7]; EC50, AVERAGE, OR49b, arithmetic average of 5 replicate EC50",17.4 µM
same,EC50,"[7]; EC50, FITTED AVERAGE CURVE, OR49b, fit of the averaged curve",24.4 µM
same,EC50,"[7]; EC50, OR49b cell line, fitted Hill equation, Hill coefficient constrained to 1, maximal response max 1",13.9 µM
same,EC50,"[7]; LOG EC50 (fitted parameter), OR49b, fit of each biological replicate, log of EC50, unit inferred",3.35 µM and 16.1 µM and 14.8 µM and 21 µM and 31.6 µM
same,EC50,"[7]; LOG EC50, AVERAGE, OR49b, average of 5 biological replicates",14 µM
same,"response, AVERAGE","[7]; OR49b, VOC concentration 0.075",0
same,"response, biological replicates","[7]; OR49b, VOC concentration 0.075",0
same,"response, AVERAGE","[7]; OR49b, VOC concentration 0.15",0
same,"response, biological replicates","[7]; OR49b, VOC concentration 0.15",0
same,"response, AVERAGE","[7]; OR49b, VOC concentration 0.3",0.0628
same,"response, biological replicates","[7]; OR49b, VOC concentration 0.3",0 (2×) and 0.1244 and 0.09727 and 0.09231
same,"response, AVERAGE","[7]; OR49b, VOC concentration 0.6",0.04614
same,"response, biological replicates","[7]; OR49b, VOC concentration 0.6",0 (3×) and 0.1263 and 0.1043
same,"response, AVERAGE","[7]; OR49b, VOC concentration 1.25",0.07731
same,"response, biological replicates","[7]; OR49b, VOC concentration 1.25",0 (2×) and 0.1346 and 0.1269 and 0.1251
same,"response, AVERAGE","[7]; OR49b, VOC concentration 2.5",0.06463
same,"response, biological replicates","[7]; OR49b, VOC concentration 2.5",0.1405 and 0 (2×) and 0.06363 and 0.119
same,"response, AVERAGE","[7]; OR49b, VOC concentration 5",0.1447
same,"response, biological replicates","[7]; OR49b, VOC concentration 5",0.2459 and 0.1808 and 0.1356 and 0.1611 and 0
same,"response, AVERAGE","[7]; OR49b, VOC concentration 10",0.2704
same,"response, biological replicates","[7]; OR49b, VOC concentration 10",0.4119 and 0.3158 and 0.288 and 0.1952 and 0.1409
same,"response, AVERAGE","[7]; OR49b, VOC concentration 20",0.5849
same,"response, biological replicates","[7]; OR49b, VOC concentration 20",0.5662 and 0.6184 and 0.7088 and 0.601 and 0.43
same,"response, AVERAGE","[7]; OR49b, VOC concentration 40",0.6048
same,"response, biological replicates","[7]; OR49b, VOC concentration 40",0.5892 and 0.7837 and 0.6143 and 0.432
same,"response, AVERAGE","[7]; OR49b, VOC concentration 60",0.7233
same,"response, biological replicates","[7]; OR49b, VOC concentration 60",0.8924 and 0.8145 and 0.74 and 0.4464
same,"response, AVERAGE","[7]; OR49b, VOC concentration 80",0.613
same,"response, biological replicates","[7]; OR49b, VOC concentration 80",0 and 0.9414 and 0.8681 and 0.8023 and 0.453
same,"response, AVERAGE","[7]; OR49b, VOC concentration 100",0.818
same,"response, biological replicates","[7]; OR49b, VOC concentration 100",0.8641 and 0.8887 and 0.8515 and 0.6679
same,AVERAGE MAX,[7]; [8],0.8353
same,"n, AVERAGE",[7]; [8],1
same,MAX (fitted parameter),[7]; [9],0.4157 and 1 (3×) and 0.7607
same,n (fitted parameter),[7]; [9],1
same,"MAX, fitted average curve",[7]; [10],1
same,"n, FITTED AVERAGE CURVE",[7]; [10],0.855

# — publication PMC10709440, “High-throughput ligand profile characterization in novel cell lines expressing seven heterologous insect olfactory receptors for the detection of volatile plant biomarkers” (Scientific Reports, 2023)
